In US20090076044A1, “VEGFR INHIBITORS CONTAINING A ZINC BINDING MOIETY” (priority 2007, published 2009):

Columns and labels:
[1] = molecular target: T1, human EGFR (Homo sapiens, UniProt P00533); test: EGFR kinase assay (HTScan EGF Receptor Kinase Assay Kit, DELFIA); assay type: biochemical; conditions: 200 μM ATP
T1 construct: human EGFR (His672-Ala1210); purchased Cell Signaling Technologies; host or cells: baculovirus expression system
Description: (e) An In Vitro Assay which Determines the Ability of a Test Compound to Inhibit EGFR Kinase.
The ability of compounds to inhibit receptor kinase (EGFR) activity was assayed using HTScan™ EGF Receptor Kinase Assay Kits (Cell Signaling Technologies, Danvers, Mass.). EGFR tyrosine kinase was obtained as GST-kinase fusion protein which was produced using a baculovirus expression system with a construct expressing human EGFR (His672-Ala1210) (GenBank Accession No. NM_005228) with an amino-terminal GST tag. The protein was purified by one-step affinity chromatography using glutathione-agarose. An anti-phosphotyrosine monoclonal antibody, P-Tyr-100, was used to detect phosphorylation of biotinylated substrate peptides (EGFR), Biotin-PTP1B (Tyr66). Enzymatic activity was tested in 60 mM HEPES, 5 mM MgCl2 5 mM MnCl2 200 μM ATP, 1.25 mM DTT, 3 μM Na3VO4, 1.5 mM peptide, and 50 ng EGF Receptor Kinase. Bound antibody was detected using the DELFIA system (PerkinElmer, Wellesley, Mass.) consisting of DELFIA® Europium-labeled Anti-mouse IgG (PerkinElmer, #AD0124), DELFIA® Enhancement Solution (PerkinElmer, #1244-105), and a DELFIA® Streptavidin coated, 96-well Plate (PerkinElmer, AAAND-0005). Fluorescence was measured on a WALLAC Victor 2 plate reader and reported as relative fluorescence units (RFU). Data were plotted using GraphPad Prism (v4.0a) and IC50's calculated using a sigmoidal dose response curve fitting algorithm.
Test compounds were dissolved in dimethylsulfoxide (DMSO) to give a 20 mM working stock concentration. Each assay was setup as follows: Added 100 μl of 10 mM ATP to 1.25 ml 6 mM substrate peptide. Diluted the mixture with dH2O to 2.5 ml to make 2×ATP/substrate cocktail ([ATP]=[…], [substrate]=3 mM). Immediately transfer enzyme from −80° C. to ice. Allowed enzyme to thaw on ice. Microcentrifuged briefly at 4° C. to bring liquid to the bottom of the vial. Returned immediately to ice. Added 10 μl of DTT (1.25 mM) to 2.5 ml of 4× HTScan™ Tyrosine Kinase Buffer (240 mM HEPES pH 7.5, 20 mM MgCl2, 20 mM MnCl, 12 mM NaVO3) to make DTT/Kinase buffer. Transfer 1.25 ml of DTT/Kinase buffer to enzyme tube to make 4× reaction cocktail ([enzyme]=4 ng/μL in 4× reaction cocktail). Incubated 12.5 μl of the 4× reaction cocktail with 12.5 μl/well of prediluted compound of interest (usually around 10 μM) for 5 minutes at room temperature. Added 25 μl of 2×ATP/substrate cocktail to 25 μl/well preincubated reaction cocktail/compound. Incubated reaction plate at room temperature for 30 minutes. Added 50 μl/well Stop Buffer (50 mM EDTA, pH 8) to stop the reaction. Transferred 25 μl of each reaction and 75 μl dH2O/well to a 96-well streptavidin-coated plate and incubated at room temperature for 60 minutes. Washed three times with 200 μl/well PBS/T (PBS, 0.05% Tween-20). Diluted primary antibody, Phospho-Tyrosine mAb (P-Tyr-100), 1:1000 in PBS/T with 1% bovine serum albumin (BSA). Added 100 μl/well primary antibody. Incubated at room temperature for 60 minutes. Washed three times with 200 μl/well PBS/T. Diluted Europium labeled anti-mouse IgG 1:500 in PBS/T with 1% BSA. Added 100 μl/well diluted antibody. Incubated at room temperature for 30 minutes. Washed five times with 200 μl/well PBS/T. Added 100 μl/well DELFIA® Enhancement Solution. Incubated at room temperature for 5 minutes. Detected 615 nm fluorescence emission with appropriate Time-Resolved Plate Reader.

[2] = molecular target: T2, human c-Met (Homo sapiens, UniProt P08581); test: c-Met radioisotope kinase assay; assay type: biochemical; conditions: 1 μM ATP
T2 construct: recombinant human catalytic domain (amino acids 956-1390); His; host or cells: insect cells
Description: (c) An In Vitro Assay which Determines the Ability of a Test Compound to Inhibit c-MET Enzymatic Activity.
For c-Met assay, p33 ATP tracers were incubated with purified recombinant c-Met kinase to monitor the enzyme activity. C-Met (Accession number: GenBank NP_000236.2) is characterized as follows: recombinant human catalytic domain (amino acids 956-1390) with histidine-tagged, expressed in insect cells. Purity≧90% by SDS-PAGE and Coomassie blue staining. MW=53.7 kDa. Specific Activity of 373 nmole of phosphate transferred to myelin basic protein (MBP) per minute per mg of total protein at 30° C. Activity determined at a final protein concentration of 2 μg/mL. Enzyme at 0.41 mg/ml in 20 mM Tris (pH 7.5), 100 mM NaCl, 0.5 mM EDTA, 0.05% Triton X-100, 2 mM DTT, 50% Glycerol. In this assay, reactions were carried out in the presence of 10 nM c-Met kinase and 5 uM myelin basic protein. The reaction was carried out at 30° C. for 120 minutes in a final assay condition contained 20 mM HEPES, pH 7.5, 10 mM MgCl2, 1 mM EGTA, 0.02% Brij 35, 0.02 mg/ml BSA, 0.1 mM Na3VO4, 2 mM DTT and 1 μM ATP. An equal volume of 25% TCA was added to stop the reaction and precipitate the labeled proteins. Precipitated proteins were trapped onto glass fiber B filterplates and excess unlabeled p33 ATP was washed off. The plates were allowed to air-dry prior to the addition of 30 uL/well of Packard Microscint 20. The amount of incorporated isotope was measured using a Perkin Elmer TopCount plate reader. Different concentrations of compounds were added to reaction to assess the activity of compounds to inhibit c-Met kinase. IC50 was calculated using Prism software with sigmoidal dose-response curve fitting.

T2 sequence (P08581 956-1390): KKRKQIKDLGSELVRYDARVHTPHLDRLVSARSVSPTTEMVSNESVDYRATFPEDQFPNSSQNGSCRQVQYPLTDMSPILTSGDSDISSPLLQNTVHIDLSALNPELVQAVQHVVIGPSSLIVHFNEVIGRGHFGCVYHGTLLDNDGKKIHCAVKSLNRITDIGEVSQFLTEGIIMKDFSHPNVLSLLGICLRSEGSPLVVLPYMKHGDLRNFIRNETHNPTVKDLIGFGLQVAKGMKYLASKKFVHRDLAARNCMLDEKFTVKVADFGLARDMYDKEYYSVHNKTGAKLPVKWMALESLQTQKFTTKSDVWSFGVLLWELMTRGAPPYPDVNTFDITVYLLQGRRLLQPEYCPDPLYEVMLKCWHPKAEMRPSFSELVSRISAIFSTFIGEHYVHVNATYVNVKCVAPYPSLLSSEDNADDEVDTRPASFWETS
T1 sequence (P00533 672-1210): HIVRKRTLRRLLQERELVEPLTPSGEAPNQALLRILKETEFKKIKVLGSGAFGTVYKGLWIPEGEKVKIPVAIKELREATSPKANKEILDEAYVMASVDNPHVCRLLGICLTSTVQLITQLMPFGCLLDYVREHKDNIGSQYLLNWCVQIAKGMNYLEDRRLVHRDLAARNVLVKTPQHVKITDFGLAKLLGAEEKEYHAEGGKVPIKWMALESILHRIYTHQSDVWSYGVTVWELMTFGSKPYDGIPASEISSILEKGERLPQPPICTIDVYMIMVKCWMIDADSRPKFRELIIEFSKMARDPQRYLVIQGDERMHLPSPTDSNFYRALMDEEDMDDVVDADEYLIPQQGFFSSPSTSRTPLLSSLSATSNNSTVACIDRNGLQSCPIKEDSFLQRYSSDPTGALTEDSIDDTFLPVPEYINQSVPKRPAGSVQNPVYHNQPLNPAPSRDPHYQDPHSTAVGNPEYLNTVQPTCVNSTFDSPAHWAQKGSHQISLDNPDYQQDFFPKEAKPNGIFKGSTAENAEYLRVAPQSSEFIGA

Row | Compound | IC50 [1] [nM] | IC50 [2] [nM]
1 | COc1cc2ncnc(Nc3ccc4occc4c3)c2cc1OCCCCCCC(=O)NO [Compound 2, 7-(4-(benzofuran-5-ylamino)-7-methoxyquinazolin-6-yloxy)-N-hydroxyheptanamide] | < 100 | 
2 | COc1cc2c(Oc3ccc4[nH]c(C)cc4c3F)ncnc2cc1OCCCCCC(=O)NO [Compound 10, 6-(4-(4-fluoro-2-methyl-1H-indol-5-yloxy)-6-methoxyquinazolin-7-yloxy)-N-hydroxyhexanamide] | 100 to 1000 | 1000 to 10000
3 | COc1cc2c(Oc3ccc4[nH]c(C)cc4c3F)ncnc2cc1OCCCCCCC(=O)NO [Compound 11, 7-(4-(4-fluoro-2-methyl-1H-indol-5-yloxy)-6-methoxyquinazolin-7-yloxy)-N-hydroxyheptanamide] | 1000 to 10000 | 1000 to 10000
4 | COc1cc2c(Nc3ccc4[nH]c(C)cc4c3F)ncnc2cc1OCCCCCC(=O)NO [Compound 13, 6-(4-(4-fluoro-2-methyl-1H-indol-5-ylamino)-6-methoxyquinazolin-7-yloxy)-N-hydroxyhexanamide] | 100 to 1000 | 
5 | COc1cc2c(Nc3ccc4[nH]c(C)cc4c3F)ncnc2cc1OCCCCCCC(=O)NO [Compound 14, 7-(4-(4-fluoro-2-methyl-1H-indol-5-ylamino)-6-methoxy-quinazolin-7-yloxy)-N-hydroxyheptanamide] | < 100 | 1000 to 10000
6 | Cc1cc2c(F)c(Oc3ncnc4cc(OCCCN5CCCC5)c(OCCCCCC(=O)NO)cc34)ccc2[nH]1 [Compound 16, 6-(4-(4-fluoro-2-methyl-1H-indol-5-yloxy)-7-(3-(pyrrolidin-1-yl)propoxy)quinazolin-6-yloxy)-N-hydroxyhexanamide] | 1000 to 10000 | 100 to 1000
7 | Cc1cc2c(F)c(Oc3ncnc4cc(OCCCN5CCCC5)c(OCCCCCCC(=O)NO)cc34)ccc2[nH]1 [Compound 17] | 1000 to 10000 | < 100
8 | Cc1cc2c(F)c(Nc3ncnc4cc(OCCCN5CCCC5)c(OCCCCC(=O)NO)cc34)ccc2[nH]1 [Compound 18, 5-(4-(4-fluoro-2-methyl-1H-indol-5-ylamino)-7-(3-(pyrrolidin-1-yl)propoxy)quinazolin-6-yloxy)-N-hydroxypentanamide] | 100 to 1000 | 
9 | Cc1cc2c(F)c(Nc3ncnc4cc(OCCCN5CCCC5)c(OCCCCCC(=O)NO)cc34)ccc2[nH]1 [Compound 19, 6-(4-(4-Fluoro-2-methyl-1H-indol-5-ylamino)-7-(3-(pyrrolidin-1-yl)propoxy)quinazolin-6-yloxy)-N-hydroxyhexanamide] | < 100 | 
10 | Cc1cc2c(F)c(Nc3ncnc4cc(OCCCN5CCCC5)c(OCCCCCCC(=O)NO)cc34)ccc2[nH]1 [Compound 20, 7-(4-(4-Fluoro-2-methyl-1H-indol-5-ylamino)-7-(3-(pyrrolidin-1-yl)propoxy)quinazolin-6-yloxy)-N-hydroxyheptanamide] | 1000 to 10000 | 1000 to 10000
